{"source": "paper PMC4551947", "about": "(Nucleic Acids Research, 2015)", "key": {"[1]": {"target": "T1, NTD (isolated N-terminal SPOUT domain of EcTrmJ) (Escherichia coli, UniProt P0AE01)", "T1 sequence (P0AE01 1-170)": "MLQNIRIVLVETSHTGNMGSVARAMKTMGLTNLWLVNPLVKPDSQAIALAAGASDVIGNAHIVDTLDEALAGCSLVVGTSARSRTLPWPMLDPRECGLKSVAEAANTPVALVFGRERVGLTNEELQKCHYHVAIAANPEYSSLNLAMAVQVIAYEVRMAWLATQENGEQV", "test": "isothermal titration calorimetry", "assay_type": "binding", "details": "25 °C, 20 mM Tris-HCl pH 7.5, 100 mM NaCl, 10 mM MgCl2"}, "crystal structure": {"target": "the molecule itself", "test": "crystal structure"}}}
{"molecule": "Nc1ncnc2c1ncn2[C@@H]1O[C@H](CSCC[C@H](N)C(=O)O)[C@@H](O)[C@H]1O", "note": "[SAH]", "values": [{"measurement": "KD", "setting": "[1]", "result": "NTD alone could bind SAH as effectively as full-length EcTrmJ"}]}
{"molecule": "Escherichia coli TrmJ (EcTrmJ), tRNA Xm32 methyltransferase, full-length (enzyme, Escherichia coli K-12 MG1655, UniProt P0AE01 1-246, looked up) MLQNIRIVLVETSHTGNMGSVARAMKTMGLTNLWLVNPLVKPDSQAIALAAGASDVIGNAHIVDTLDEALAGCSLVVGTSARSRTLPWPMLDPRECGLKSVAEAANTPVALVFGRERVGLTNEELQKCHYHVAIAANPEYSSLNLAMAVQVIAYEVRMAWLATQENGEQVEHEETPYPLVDDLERFYGHLEQTLLATGFIRENHPGQVMNKLRRLFTRARPESQELNILRGILASIEQQNKGNKAE", "values": [{"measurement": "stoichiometry N", "setting": "crystal structure", "result": 2}]}
